Reference: ChEMBL document CHEMBL4715697, “Synthesis and biological activity of benzamide DNA minor groove binders” (2016)

Tests used:
Type in all cases: functional
Details in all cases: read-out: Activity
[1] = system: SW-620; test: Growth inhibition of human SW-620 cells assessed as cell growth at 10 uM incubated for 48 hrs by sulforhodamine B assay relative to control
[2] = system: OVCAR-5; test: Growth inhibition of human OVCAR-5 cells assessed as cell growth at 10 uM incubated for 48 hrs by sulforhodamine B assay relative to control
[3] = system: SNB-75; test: Growth inhibition of human SNB-75 cells assessed as cell growth at 10 uM incubated for 48 hrs by sulforhodamine B assay relative to control
[4] = system: MDA-MB-468; test: Growth inhibition of human MDA-MB-468 cells assessed as cell growth at 10 uM incubated for 48 hrs by sulforhodamine B assay relative to control
[5] = system: NCI-H23; test: Growth inhibition of human NCI-H23 cells assessed as cell growth at 10 uM incubated for 48 hrs by sulforhodamine B assay relative to control
[6] = system: RPMI-8226; test: Growth inhibition of human RPMI-8226 cells assessed as cell growth at 10 uM incubated for 48 hrs by sulforhodamine B assay relative to control
[7] = system: CAKI-1; test: Growth inhibition of human CAKI-1 cells assessed as cell growth at 10 uM incubated for 48 hrs by sulforhodamine B assay relative to control
[8] = system: HCT-15; test: Growth inhibition of human HCT-15 cells assessed as cell growth at 10 uM incubated for 48 hrs by sulforhodamine B assay relative to control
[9] = system: HCC 2998; test: Growth inhibition of human HCC 2998 cells assessed as cell growth at 10 uM incubated for 48 hrs by sulforhodamine B assay relative to control
[10] = system: MOLT-4; test: Growth inhibition of human MOLT-4 cells assessed as cell growth at 10 uM incubated for 48 hrs by sulforhodamine B assay relative to control
[11] = system: 786-0; test: Growth inhibition of human 786-0 cells assessed as cell growth at 10 uM incubated for 48 hrs by sulforhodamine B assay relative to control
[12] = system: UACC-62; test: Growth inhibition of human UACC-62 cells assessed as cell growth at 10 uM incubated for 48 hrs by sulforhodamine B assay relative to control
[13] = system: SK-MEL-5; test: Growth inhibition of human SK-MEL-5 cells assessed as cell growth at 10 uM incubated for 48 hrs by sulforhodamine B assay relative to control
[14] = system: HOP-62; test: Growth inhibition of human HOP-62 cells assessed as cell growth at 10 uM incubated for 48 hrs by sulforhodamine B assay relative to control
[15] = system: BT-549; test: Growth inhibition of human BT-549 cells assessed as cell growth at 10 uM incubated for 48 hrs by sulforhodamine B assay relative to control
[16] = system: SK-OV-3; test: Growth inhibition of human SK-OV-3 cells assessed as cell growth at 10 uM incubated for 48 hrs by sulforhodamine B assay relative to control
[17] = system: MDA-MB-435; test: Growth inhibition of human MDA-MB-435 cells assessed as cell growth at 10 uM incubated for 48 hrs by sulforhodamine B assay relative to control
[18] = system: CCRF-CEM; test: Growth inhibition of human CCRF-CEM cells assessed as cell growth at 10 uM incubated for 48 hrs by sulforhodamine B assay relative to control
[19] = system: RXF 393; test: Growth inhibition of human RXF 393 cells assessed as cell growth at 10 uM incubated for 48 hrs by sulforhodamine B assay relative to control
[20] = system: K562; test: Growth inhibition of human K562 cells assessed as cell growth at 10 uM incubated for 48 hrs by sulforhodamine B assay relative to control
[21] = system: ACHN; test: Growth inhibition of human ACHN cells assessed as cell growth at 10 uM incubated for 48 hrs by sulforhodamine B assay relative to control
[22] = system: HCT-116; test: Growth inhibition of human HCT-116 cells assessed as cell growth at 10 uM incubated for 48 hrs by sulforhodamine B assay relative to control
[23] = system: U-251; test: Growth inhibition of human U-251 cells assessed as cell growth at 10 uM incubated for 48 hrs by sulforhodamine B assay relative to control
[24] = system: TK-10; test: Growth inhibition of human TK-10 cells assessed as cell growth at 10 uM incubated for 48 hrs by sulforhodamine B assay relative to control
[25] = system: LOX IMVI; test: Growth inhibition of human LOX IMVI cells assessed as cell growth at 10 uM incubated for 48 hrs by sulforhodamine B assay relative to control
[26] = system: PC-3; test: Growth inhibition of human PC-3 cells assessed as cell growth at 10 uM incubated for 48 hrs by sulforhodamine B assay relative to control
[27] = system: SR; test: Growth inhibition of human SR cells assessed as cell growth at 10 uM incubated for 48 hrs by sulforhodamine B assay relative to control
[28] = system: IGROV-1; test: Growth inhibition of human IGROV-1 cells assessed as cell growth at 10 uM incubated for 48 hrs by sulforhodamine B assay relative to control
[29] = system: OVCAR-3; test: Growth inhibition of human OVCAR-3 cells assessed as cell growth at 10 uM incubated for 48 hrs by sulforhodamine B assay relative to control
[30] = system: A549; test: Growth inhibition of human A549/ATCC cells assessed as cell growth at 10 uM incubated for 48 hrs by sulforhodamine B assay relative to control
[31] = system: UACC-257; test: Growth inhibition of human UACC-257 cells assessed as cell growth at 10 uM incubated for 48 hrs by sulforhodamine B assay relative to control
[32] = system: NCI-H460; test: Growth inhibition of human NCI-H460 cells assessed as cell growth at 10 uM incubated for 48 hrs by sulforhodamine B assay relative to control
[33] = system: UO-31; test: Growth inhibition of human UO-31 cells assessed as cell growth at 10 uM incubated for 48 hrs by sulforhodamine B assay relative to control
[34] = system: M14; test: Growth inhibition of human M14 cells assessed as cell growth at 10 uM incubated for 48 hrs by sulforhodamine B assay relative to control
[35] = system: HT-29; test: Growth inhibition of human HT-29 cells assessed as cell growth at 10 uM incubated for 48 hrs by sulforhodamine B assay relative to control
[36] = system: DU-145; test: Growth inhibition of human DU-145 cells assessed as cell growth at 10 uM incubated for 48 hrs by sulforhodamine B assay relative to control
[37] = system: NCI-H522; test: Growth inhibition of human NCI-H522 cells assessed as cell growth at 10 uM incubated for 48 hrs by sulforhodamine B assay relative to control
[38] = system: OVCAR-8; test: Growth inhibition of human OVCAR-8 cells assessed as cell growth at 10 uM incubated for 48 hrs by sulforhodamine B assay relative to control
[39] = system: SF-268; test: Growth inhibition of human SF-268 cells assessed as cell growth at 10 uM incubated for 48 hrs by sulforhodamine B assay relative to control
[40] = system: SN12C; test: Growth inhibition of human SN12C cells assessed as cell growth at 10 uM incubated for 48 hrs by sulforhodamine B assay relative to control

For CC(=O)Nc1cc(CO)cc(NC(=O)c2cccc(NC(=O)CCCN3CCOCC3)c2)c1, the growth at 10 µM [1] was 108%, the growth at 10 µM [2] was 101% and the growth at 10 µM [3] was 102%. It also gave a growth at 10 µM [4] of 92.3%, a growth at 10 µM [5] of 105% and a growth at 10 µM [6] of 92.1%. For the same molecule, the growth at 10 µM [7] was 116%, the growth at 10 µM [8] was 103% and the growth at 10 µM [9] was 101%. The growth at 10 µM [10] was 102%, the growth at 10 µM [11] was 99.4% and the growth at 10 µM [12] was 100%. For the same molecule, the growth at 10 µM [13] was 104%, the growth at 10 µM [14] was 103% and the growth at 10 µM [15] was 91.7%. It also gave a growth at 10 µM [16] of 104%, a growth at 10 µM [17] of 103% and a growth at 10 µM [18] of 89.4%. It also gave a growth at 10 µM [19] of 105%, a growth at 10 µM [20] of 105% and a growth at 10 µM [21] of 108%. The growth at 10 µM [22] was 98.9%, the growth at 10 µM [23] was 104% and the growth at 10 µM [24] was 94%. It also gave a growth at 10 µM [25] of 99.8%, a growth at 10 µM [26] of 102% and a growth at 10 µM [27] of 105%. The growth at 10 µM [28] was 106%, the growth at 10 µM [29] was 145% and the growth at 10 µM [30] was 101%. For the same molecule, the growth at 10 µM [31] was 107%, the growth at 10 µM [32] was 108% and the growth at 10 µM [33] was 95.5%. The growth at 10 µM [34] was 106%, the growth at 10 µM [35] was 106% and the growth at 10 µM [36] was 108%. It also gave a growth at 10 µM [37] of 93.1%, a growth at 10 µM [38] of 107% and a growth at 10 µM [39] of 107%. It also gave a growth at 10 µM [40] of 101%.
For CC(=O)Nc1cc(CO[Si](C)(C)C(C)(C)C)cc(NC(=O)c2ccc(C(=O)Nc3cccc(NC(=O)CCCN(C)C)c3)cc2)c1, the growth at 10 µM [1] was 99%, the growth at 10 µM [2] was 80% and the growth at 10 µM [3] was 73%. For the same molecule, the growth at 10 µM [4] was 89%, the growth at 10 µM [5] was 90% and the growth at 10 µM [6] was 106%. The growth at 10 µM [7] was 86%, the growth at 10 µM [8] was 85% and the growth at 10 µM [9] was 93%. It also gave a growth at 10 µM [10] of 91%, a growth at 10 µM [11] of 95% and a growth at 10 µM [12] of 89%. For the same molecule, the growth at 10 µM [13] was 89%, the growth at 10 µM [14] was 92% and the growth at 10 µM [15] was 84%. For the same molecule, the growth at 10 µM [16] was 103%, the growth at 10 µM [17] was 96% and the growth at 10 µM [18] was 109%. It also gave a growth at 10 µM [19] of 95%, a growth at 10 µM [20] of 93% and a growth at 10 µM [21] of 90%. It also gave a growth at 10 µM [22] of 99%, a growth at 10 µM [23] of 87% and a growth at 10 µM [24] of 104%. It also gave a growth at 10 µM [25] of 82%, a growth at 10 µM [26] of 97% and a growth at 10 µM [27] of 108%. The growth at 10 µM [28] was 90%, the growth at 10 µM [29] was 104% and the growth at 10 µM [30] was 86%. For the same molecule, the growth at 10 µM [31] was 87%, the growth at 10 µM [32] was 95% and the growth at 10 µM [33] was 105%. It also gave a growth at 10 µM [34] of 90%, a growth at 10 µM [35] of 106% and a growth at 10 µM [36] of 97%. It also gave a growth at 10 µM [37] of 82%, a growth at 10 µM [38] of 93% and a growth at 10 µM [39] of 94%. The growth at 10 µM [40] was 99%.
